Experimental data: US20230149562A1 (priority 2020, published 2023)

Legend:
293T cells = test: In vitro SEAP expression via QuantiBlue assay, DNA nanoparticles; assay type: cell-based; details: 24 hours post-treatment
Protocol: To test the ability of these nanoparticles to express SEAP in vitro, 293T cells were treated with nanoparticles. Each well of a 96 well dish of 293 Ts was treated with 10 μL (approximately 0.25 μg) of each formulation product diluted into a final volume of 200 μL with a 1:1 Optimem:PBS mix. The nontreated wells had 200 μL of 50/50 PBS/OptiMEM. Twenty four hours post-treatment or transfection, conditioned media from each culture was collected. Media was analyzed using the QuantiBlue assay (InvivoGen). 180 μL QuantiBlue reagent was combined with 50 μL of media from wells. Readings were taken after 40 minutes by measuring absorbance at 650 nm as directed by the manufacturer's protocol. For the no treatment Negative Control, 50 μL of media from a well not treated with nanoparticles was added to 180 μL QuantiBlue Reagent. These samples were treated the same way as all other samples in all steps of the assay.
FIG. 11 illustrates in vitro SEAP expression of nanoparticle formulations with modified dendrimers used to treat 293T cells.

[1] = tested on: Influenza A virus (PR/8/34); test: Hemagglutinin Inhibition Assay (HAI) on vaccinated animal sera
Protocol: HAI tests were performed on vaccinated animal sera according to the standard recommended WHO protocol [World Health Organization. […] Sera were treated with receptor destroying enzyme (Denka Seiken Co. Ltd, Tokyo, Japan) at 37° C. overnight then heat inactivated for 30 minutes at 56° C. After cooling down to RT, those serum samples were mixed with 2 volume of 25% suspension of turkey red blood cells (RBC, Rockland Immunochemicals) and incubated at room temperature for 2 hours followed by centrifugation to remove RBC. The treated sera, now considered to be at a 1:10 dilution, were serially diluted and incubated with 4 HA units of inactivated Influenza A virus (PR/8/34, Virusys #IAV210) for 30 minutes at room temperature. An equal volume of 0.5% turkey RBC was added to each well and incubated for 30 minutes at room temperature.

SMILES | in vitro SEAP expression (293T cells) | average HI titer ([1]; week 4, after prime vaccination, 5 μg nanoparticle vaccine, HA mRNA) | average HI titer ([1]; week 5, one week after boost immunization, 5 μg)
CCCCCCCCCCCCCCCCC(=O)NCCCN(C)CCCNC(=O)OCC(C)(COC(=O)NCCCN(C)CCCNC(=O)CCCCCCCCCCCCCCCC)C(=O)OCC(CC)(COC(=O)C(C)(COC(=O)NCCCN(C)CCCNC(=O)CCCCCCCCCCCCCCCC)COC(=O)NCCCN(C)CCCNC(=O)CCCCCCCCCCCCCCCC)COC(=O)C(C)(COC(=O)NCCCN(C)CCCNC(=O)CCCCCCCCCCCCCCCC)COC(=O)NCCCN(C)CCCNC(=O)CCCCCCCCCCCCCCCC [PE-Heptadecanoic] | resulted in SEAP expression |  | 
CCCCCCCC/C=C\CCCCCCCC(=O)NCCCN(C)CCCNC(=O)OCC(C)(COC(=O)NCCCN(C)CCCNC(=O)CCCCCCC/C=C\CCCCCCCC)C(=O)OCC(CC)(COC(=O)C(C)(COC(=O)NCCCN(C)CCCNC(=O)CCCCCCC/C=C\CCCCCCCC)COC(=O)NCCCN(C)CCCNC(=O)CCCCCCC/C=C\CCCCCCCC)COC(=O)C(C)(COC(=O)NCCCN(C)CCCNC(=O)CCCCCCC/C=C\CCCCCCCC)COC(=O)NCCCN(C)CCCNC(=O)CCCCCCC/C=C\CCCCCCCC [PE-Oleic] | resulted in SEAP expression | 40 | 192
